Assay results taken from US7049486B2, “Method of inducing gene expression in plant and the plant treated thereby” (priority 2000, dated 2006).

Tests used:
[1] = target: T1, ArpA (Streptomyces griseus, UniProt Q9ZN78); details: A factor/ArpA; read-out: dissociation constant (Kd value); cited from earlier work
T1 sequence (Q9ZN78 1-276): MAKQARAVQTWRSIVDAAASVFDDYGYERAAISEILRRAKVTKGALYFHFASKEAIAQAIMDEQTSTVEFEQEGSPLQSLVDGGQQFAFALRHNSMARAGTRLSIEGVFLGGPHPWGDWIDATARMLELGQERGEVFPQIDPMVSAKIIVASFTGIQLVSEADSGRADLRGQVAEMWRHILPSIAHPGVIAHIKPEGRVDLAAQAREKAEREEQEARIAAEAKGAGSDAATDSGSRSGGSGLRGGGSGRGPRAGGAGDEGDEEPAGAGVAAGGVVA

[2] = test system: GUS reporter gene placed under the control of the operator BARE-3 (repressor BarA); test: GUS reporter induction at low VB concentrations in transiently transformed cultured tobacco cells (Example 7); type: cell-based
Excerpt: Cultured tobacco cells were provided with the characters of the repressor BarA (receptor protein for VB) and operator BARE-3 (one of the target sequences for BarA) constituting a gene expression inducing system with the actinomycete Streptomyces virginiae autogenous regulatory factor VB as the inducer by gene transfer and whether the expression of the GUS reporter gene placed under the control of the operator BARE-3 was induced was examined by administering the inducer VB in low concentrations to thus-obtained transiently transformed cultured tobacco cells.
Like in Example 6, the GUS reporter gene placed under the control of BARE-3 (Example 2, plasmid pCaMV35SD-gus) was further transferred into a cultured tobacco cell transformant clone (Example 3, No. 21 shown in FIG. 1) seemingly indicating relatively high level accumulation of the BarA protein among the clones obtained by transferring the barA gene (Example 1, binary vector pBICaMV35S-barA) into cultured tobacco BY2 cells, for transient transformation of that clone. […]

[3] = test system: plants; test: Toxicity to plants; details: concentration of 10 μM
Excerpt: The actinomycete autogenous regulatory factors have no toxicity to plants.

Row | Compound | Kd [1] [nM] | concentration at which gene expression under the control of BARE-3 is induced to a satisfactory extent [2] [nM] | toxicity to plants [3]
1 | CC(C)CCCCC(=O)C1C(=O)OC[C@H]1CO (stereo partly drawn) [A factor] | 0.7 | – | –
2 | virginiae butanolide [VB] | – | 100 | no toxicity
